Test results as given in patent US4013662A, “Alkyl and benzyl 6,7-dialkoxy-2-methyl-4-oxo-1,2,3,4-tetrahydroquinoline-1-carboxylates” (Pfizer Inc., priority 1975, dated 1977).

How the values were obtained:
[1] = Mouse Tail Pinch Technique (modified Haffner procedure); type: in vivo, mice; details: lack of an audible squeak
Description: The activity of compounds of this invention as analgesic agents has also been shown by testing their effectiveness in a Mouse Tail Pinch Technique. This technique was a modification of the Haffner procedure [Deutsche Med. Wochenschrifte, 55, 731-732 (1929)] in which the mice were strongly pinched on the base of the tail. An audible squeak was elicited in normal non-drugged mice. Lack of an audible squeak was taken as indication of analgesic activity in drugged mice.

[2] = Rat Flinch Jump Test (suppression of the jump component); type: in vivo; parameters: unit not given here
Description: D. Suppression of the "jump" component of the Flinch-Jump Test [Evans, Psychopharmacologia, 2, 318 (1961)].
The following results were obtained when the performance of the d-, l and dl- forms of a compound of the invention were compared in the Rat Flinch Jump Thresholds The control Jump Threshold using saline were 0.78 at 0.5 hr. and 0.92 at 2 hr.
The following results were obtained when 6,7-dimethoxy-2-methyl-4-oxo-1,2,3,4-tetrahydroquinoline, ethyl 6,7-dimethoxy-2-methyl-4-oxo-1,2,3,4-tetrahydroquinoline-1-carboxylate and benzyl 6,7-dimethoxy-2-methyl-4-oxo-1,2,3,4-tetrahydroquinoline-1-carboxylate were compared in the Rat Flinch Jump Test. The dosage of test compound was 56 mpk. Each of the compounds was in its racemic form.

[3] = Symptomatology (rotorod, inclined plane); type: in vivo, mice; details: intraperitoneally; for Symptomatology, Inclined Plane: inability to remain on an inclined plane; for Symptomatology, Rotorod: inability to ride a rotating rod
Description: c. Symtomatology--Four groups of 3 mice were treated intraperitoneally with 31.6, 100, 316, or 1000 mg/kg of the test compound. At 1/2, 2, or 5 hours after treatment, symtomatological observations were made; observations were all-or-none, and classified into autonomic, muscular, reflex or behavioral categories. […] Symptoms interpreted as indicating tranquilizer activity included decreased spontaneous motor activity, inability to ride a rotating rod (rotorod), and inability to remain on an inclined plane.

[4] = Conditioned Avoidance Behavior (Maffi); type: in vivo; details: 0.5 hr.
Description: (§1) A. Conditioned Avoidance Behavior [Maffi, J. Pharmacol., 11, 129 (1959); Sidman, Science, 118, 157 (1953)].

[5] = Conditioned Avoidance Behavior (Sidman); type: in vivo
Description: as §1

[6] = Sedation Test (jiggle cage); type: in vivo, male Sprague-Dawley rats; details: oral, jiggle cage for 1 hr. from 1.5 hr.
Description: B. Sedation Test -- The subjects were male Sprague-Dawley rats weighing approximately 200 g and fed and watered ad lib before the experiment. Eight rats were assigned to each treatment group, and each rat was used only once.
1.5 hr. after oral treatment, each rat was placed in a standard jiggle cage for 1 hr. In this device, the subject was confined in a 6 × 6 × 3.5 in. Plexiglas enclosure. The enclosure was attached to one end of a flexible steel arm. This configuration, all of which was housed in a soundproof, ventilated chamber, allowed the enclosure to jiggle slightly with any movement. A force displacement transducer mounted under the jiggle cage monitored any vertical movement of the subject. The output of the transducer was coupled to a strain-gauge amplifier and to an analog recorder. To provide digital data of movement/non-movement times a trigger circuit was constructed in which the output of the strain-gauge amplifier was attentuated and rectified to activate a relay whenever the subject moved. When the relay remained deenergized for 3 sec., a timer was activated. Movement by the subject energized the relay and stopped the timer until 3 sec. of immobility recurred. This 3 sec. criterion eliminated brief periods of inactivity observed even in active rats. […]

[7] = Escape Titration Test; type: in vivo; details: p.o.
Description: E. Escape Titration Test [Weiss et al, Science, 128, 1575 (1958) ].

[8] = PBQ Writhing (Suppression of Writhing Test); type: in vivo; details: 100 mpk
Description: F. Suppression of Writhing Test [Siegmund et al, Proc. Sec. Exp. Biol., 95, 729 (1957].

[9] = Hot Plate Test; type: in vivo; details: 100 mpk
Description: G. Hot Plate Test [Eddy et al, J. Pharm. Exp. Ther., 107, 385 (1953)].

[10] = Tail Flick Test; type: in vivo; details: 100 mpk
Description: H. Tail Flick Test [Witkin et al, Proc. Soc. Exp. Biol., 101, 377 (1959)].

[11] = LD50; details: in vivo
[12] = 56 mpk, 0.5 hr., racemic compounds compared (table 4)
[13] = 56 mpk, 2.0 hr., racemic compounds compared (table 4)
[14] = 17.5 mpk, 2 hr, d-, l- and dl- forms compared, saline control 0.92
[15] = 17.5 mpk, .5 hr, d-, l- and dl- forms compared, saline control 0.78
[16] = 32 mpk, 2 hr, d-, l- and dl- forms compared, saline control 0.92
[17] = 32 mpk, .5 hr, d-, l- and dl- forms compared, saline control 0.78
[18] = 56 mpk, 2 hr, d-, l- and dl- forms compared, saline control 0.92
[19] = 56 mpk, .5 hr, d-, l- and dl- forms compared, saline control 0.78

SMILES: CCOC(=O)N1c2cc(OC)c(OC)cc2C(=O)CC1C (stereo not shown) [drawing 15]
- ED50 [1]: > 100 mg/kg

SMILES: COc1cc2c(cc1OC)C(=O)CC(C)N2 (racemic) [6,7-Dimethoxy-2-methyl-4-oxo-1,2,3,4-tetrahydroquinoline]
- Jump Threshold [2, 12]: 1.47
- Jump Threshold [2, 13]: 1.10

SMILES: COc1cc2c(cc1OC)N(C(=O)OCc1ccccc1)C(C)CC2=O (stereo not shown) [drawing 10]
- Symptomatology, Inclined Plane [3]: 100-316 mpk
- Symptomatology, Rotorod [3]: 100-316 mpk

SMILES: CCOC(=O)N1c2cc(OC)c(OC)cc2C(=O)CC1C (single isomer, unassigned) [l-ethyl 6,7-dimethoxy-2-methyl-4-oxo-1,2,3,4-tetrahydroquino] [l-Ethyl 6,7-Dimethoxy-2-methyl-4-oxo-1,2,3,4-tetrahydroquinoline-1-carboxylate]
- Jump Threshold [2, 14]: 0.92
- Jump Threshold [2, 15]: 0.92
- Jump Threshold [2, 16]: 0.86
- Jump Threshold [2, 17]: 0.85
- Jump Threshold [2, 18]: 0.86
- Jump Threshold [2, 19]: 1.05

SMILES: COC(=O)N1c2cc(OC)c(OC)cc2C(=O)CC1C (stereo not shown) [drawing 8]
- Symptomatology, Inclined Plane [3]: 100-316 mpk
- Symptomatology, Rotorod [3]: 100-316 mpk

SMILES: CCOC(=O)N1c2cc(OC)c(OC)cc2C(=O)CC1C (racemic) [Ethyl 6,7-Dimethoxy-2-methyl-4-oxo-1,2,3,4-tetrahydroquinoline-1-carboxylate]
- Jump Threshold [2, 14]: 0.98
- Jump Threshold [2, 15]: 1.26
- Jump Threshold [2, 16]: 1.18
- Jump Threshold [2, 17]: 1.38
- Jump Threshold [2, 12]: 1.58
- Jump Threshold [2, 13]: 1.42
- Jump Threshold [2, 18]: 1.45
- Jump Threshold [2, 19]: 1.58

SMILES: CCOC(=O)N1c2cc(OC)c(OC)cc2C(=O)CC1C (stereo not shown) [drawing 7]
- Conditioned Avoidance Behavior, Maffi [4]: Active at 56, 32 and 10 mpk
- Conditioned Avoidance Behavior, Sidman ([5]; 17.8 mpk): 2 of 3 animals
- Conditioned Avoidance Behavior, Sidman ([5]; 32 mpk): Active in 3 of 3 animals
- Sedation Test ([6]; 10 mpk): Inactive at 10
- Sedation Test ([6]; 32 mpk): Active at 32 mpk
- Symptomatology, Inclined Plane [3]: 32-100 mpk
- Symptomatology, Rotorod [3]: 3.2-10 mpk

SMILES: CCCCOC(=O)N1c2cc(OC)c(OC)cc2C(=O)CC1C (stereo not shown) [drawing 17]
- ED50 [1]: > 32 mg/kg

SMILES: CCOC(=O)N1c2cc(OC)c(OC)cc2C(=O)CC1C (stereo not shown) [drawing 11]
- Rat Flinch Jump Test, Jump Threshold ([2]; 3.2 mpk i.p., 2 h): .6
- Rat Flinch Jump Test, Jump Threshold ([2]; 3.2 mpk i.p., .5 h): .8
- Rat Flinch Jump Test, Jump Threshold ([2]; 10 mpk i.p., 2 h, Run two): .8
- Rat Flinch Jump Test, Jump Threshold ([2]; 32 mpk i.p., 2 h): > 2.2
- Rat Flinch Jump Test, Jump Threshold ([2]; 32 mpk i.p., .5 h): > 2.2
- Escape Titration [7]: Active at 32 mpk (p.o.)
- PBQ Writhing [8]: Inactive at 100 mpk
- Hot Plate % Protected ([9]; 2 h): 0%
- Hot Plate % Protected ([9]; .5 h): 0%
- Tail Flick % Protected ([10]; 2 h): 0%
- Tail Flick % Protected ([10]; .5 h): 0%
- LD50 [11]: > 1000 mg/kg

SMILES: CCOC(=O)N1c2cc(OC)c(OC)cc2C(=O)CC1C (single isomer, unassigned) [d-ethyl 6,7-dimethoxy-2-methyl-4-oxo-1,2,3,4-tetrahydroquino] [d-Ethyl 6,7-Dimethoxy-2-methyl-4-oxo-1,2,3,4-tetrahydroquinoline-1-carboxylate]
- Jump Threshold [2, 14]: 0.98
- Jump Threshold [2, 15]: 1.26
- Jump Threshold [2, 16]: 1.38
- Jump Threshold [2, 17]: 1.45
- Jump Threshold [2, 18]: 1.45
- Jump Threshold [2, 19]: 1.51

SMILES: COC(=O)N1c2cc(OC)c(OC)cc2C(=O)CC1C (stereo not shown) [drawing 12]
- Rat Flinch Jump Test, Jump Threshold ([2]; 32 mpk i.p., 2 h): 1.2
- Rat Flinch Jump Test, Jump Threshold ([2]; 32 mpk i.p., .5 h): 1.6
- PBQ Writhing [8]: Inactive at 100 mpk
- Hot Plate % Protected ([9]; 2 h): 0%
- Hot Plate % Protected ([9]; .5 h): 0%
- Tail Flick % Protected ([10]; 2 h): 0%
- Tail Flick % Protected ([10]; .5 h): 0%
- LD50 [11]: > 1000 mg/kg

SMILES: COc1cc2c(cc1OC)N(C(=O)OCc1ccccc1)C(C)CC2=O (stereo not shown) [drawing 14]
- PBQ Writhing [8]: Inactive at 100 mpk
- LD50 [11]: > 1000 mg/kg

SMILES: COC(=O)N1c2cc(OC)c(OC)cc2C(=O)CC1C (stereo not shown) [drawing 16]
- ED50 [1]: 100 to 316 mg/kg

SMILES: COc1cc2c(cc1OC)N(C(=O)OCc1ccccc1)C(C)CC2=O (racemic) [Benzyl 6,7-Dimethoxy-2-methyl-4-oxo-1,2,3,4-tetrahydroquinoline-1-carboxylate]
- Jump Threshold [2, 12]: 1.47
- Jump Threshold [2, 13]: 1.21

SMILES: CCCCOC(=O)N1c2cc(OC)c(OC)cc2C(=O)CC1C (stereo not shown) [drawing 9]
- Symptomatology, Inclined Plane [3]: 100-316 mpk
- Symptomatology, Rotorod [3]: 32-100 mpk

SMILES: CCCCOC(=O)N1c2cc(OC)c(OC)cc2C(=O)CC1C (stereo not shown) [drawing 13]
- Rat Flinch Jump Test, Jump Threshold ([2]; 32 mpk i.p., 2 h): 1.2
- Rat Flinch Jump Test, Jump Threshold ([2]; 32 mpk i.p., .5 h): 1.6
- PBQ Writhing [8]: Inactive at 100 mpk
- Hot Plate % Protected ([9]; 2 h): 0%
- Hot Plate % Protected ([9]; .5 h): 0%
- Tail Flick % Protected ([10]; 2 h): 0%
- Tail Flick % Protected ([10]; .5 h): 0%
- LD50 [11]: 316 to 1000 mg/kg
